Laboratory results published in patent publication US20040198774A1, “Preventive and/or remedial agent for disease attributable to arteriosclerotic activity” (priority 2001, published 2004).

Assays:
[1] = tested on: MCP-1 secretion from human aortic endothelial cells (HAEC); assay: Secretion of MCP-1 from TNF-α stimulated human aortic endothelial cells (ELISA); type: cell-based; details: test agent 0.03 to 30 μM, TNF-α 10 ng/mL for 4 hours, FIG. 2
Protocol: An effect on the secretion of MCP-1 from vascular endothelial cells was investigated using human aortic endothelial cells (available from Clonetics Corp., USA, and hereienafter abbreviated as “HAEC”). In usual, the HAEC cells were cultured in EGM-2 medium (Clonetics) containing 2% FBS (Clonetics) in a CO2 incubator (5% CO2, 37° C.). On the first day, the HAEC cells suspended in EGM-2 medium containing 2% FBS were seeded in 96-well plates at 1×10^5 cells/well and then cultured. On the second day, after the cells were washed with PBS, the culture medium was replaced with 200 μL of EGM-2 medium containing 0.4% FBS and the test agent at various concentrations (0.03 to 30 μM) (final DMSO concentration: 0.1%) to culture the cells for 24 hours. On the third day, after the cells were washed with PBS, the culture medium was replaced with 200 μL of EGM-2 medium containing 0.4% FBS, TNF-α (10 ng/mL), and the test agent at various concentrations (0.03 to 30 μM) (final DMSO concentration: 0.1%) to stimulate the cells for 4 hours. After stimulation with TNF-α, the culture medium was collected to measure the MCP-1 concentration of the culture medium by the use of a human MCP-1 ELISA kit (Biosource).

[2] = tested on: VCAM-1 expression in human aortic endothelial cells (HAEC); assay: Expression of VCAM-1 in TNF-α stimulated human aortic endothelial cells (cell ELISA); type: cell-based; details: test agent 0.03 to 30 μM, TNF-α 10 ng/mL for 4 hours, FIG. 1
Protocol: An effect on the expression of adhesion molecules in vascular endothelial cells was investigated using human aortic endothelial cells (available from Clonetics Corp., USA, and hereinafter abbreviated as “HAEC”). In usual, the HAEC cells were cultured in EGM-2 medium (Clonetics) containing 2% FBS (Clonetics) in a CO2 incubator (5% CO2, 37° C.). On the first day, the HAEC cells suspended in EGM-2 medium containing 2% FBS were seeded in 96-well plates at 1×10^5 cells/well and then cultured. On the second day, after the cells were washed with PBS, the culture medium was replaced with 200 μL of EGM-2 medium containing 0.4% FBS and the test agent at various concentrations (0.03 to 30 μM) (final DMSO concentration: 0.1%) to culture the cells for 24 hours. On the third day, after the cells were washed with PBS, the culture medium was replaced with 200 μL of EGM-2 medium containing 0.4% FBS, TNF-α (10 ng/mL) and the test agent at various concentrations (0.03 to 30 μM) (final DMSO concentration: 0.1%) to stimulate the cells for 4 hours. After stimulation with TNF-α, the cells were washed with PBS, and then the amount of VCAM-1 expressed was evaluated according to the following cell ELISA method using an anti-human VCAM-1 antibody solution (PharMingen). Namely, the cells were fixed and blocked using paraformaldehyde, and then 200 μL of the anti-human VCAM-1 antibody solution (PharMingen) was added as a primary antibody to induce a primary antibody response for overnight incubation. Next day, 200 μL of HRP-labeled anti-Mouse IgG (γ+L) Goat F (Ab7)2 was added as a secondary antibody to induce a secondary antibody response for 4 hours, and then a substrate solution (ortho-phenylenediamine and hydrogen peroxide) was added. After reaction, the absorbance was measured using a microplate spectrophotometer, and the obtained absorbance was used as an index of the amount of VCAM-1 expressed.

human PPARγ = molecular target: T1, human PPARγ (Homo sapiens, UniProt P37231); assay: PPARγ transcription activation, Gal4-hPPARγ (LBD)/Gal4-Luc reporter in 293 T cells; type: cell-based; details: Gal4-hPPARγ (LBD) luciferase reporter, 32 hours exposure, 0.03 to 30 μM, read-out: EC50 values of PPARs transcription activation effect, PPARγ
T1 construct: expressed in transfected cells; host or cells: 293 T cells
T1 sequence (P37231 238-503 limits assumed): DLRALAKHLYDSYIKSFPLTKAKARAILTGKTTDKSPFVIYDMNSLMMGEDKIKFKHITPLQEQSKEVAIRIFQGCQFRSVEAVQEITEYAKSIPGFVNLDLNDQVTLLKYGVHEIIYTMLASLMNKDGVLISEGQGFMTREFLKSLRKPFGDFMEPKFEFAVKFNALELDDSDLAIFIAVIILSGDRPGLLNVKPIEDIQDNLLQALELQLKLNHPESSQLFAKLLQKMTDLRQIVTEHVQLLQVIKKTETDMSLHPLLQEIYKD

human PPARα = molecular target: T2, human PPARα (Homo sapiens, UniProt Q07869); assay: cell-based
T2 sequence (Q07869 239-466 limits assumed): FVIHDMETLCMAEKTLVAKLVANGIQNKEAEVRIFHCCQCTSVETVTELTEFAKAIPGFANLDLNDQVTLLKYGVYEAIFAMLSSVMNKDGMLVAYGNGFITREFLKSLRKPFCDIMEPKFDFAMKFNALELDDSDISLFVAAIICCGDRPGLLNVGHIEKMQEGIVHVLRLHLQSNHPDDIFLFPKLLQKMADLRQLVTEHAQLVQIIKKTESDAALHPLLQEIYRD
Protocol: (§1) On the second day, a transfection mixture, which contained with 9 μL of TransIT-LT1 (Takara), 2 μg of the Gal4-hPPARα (LBD) vector, the Gal4-hPPARγ (LBD) vector or the Gal4-hPPARδ (LBD) vector, 1 μg of the Gal4-Luc and 200 μL of DMEM (without FBS), was gently added to the cells at 200 μL per well. The cells were cultured all day and night to carry out gene introduction to the cells. For the investigation of the specificity of the effect on the introduced PPAR genes, gene introduction was carried out in the same manner described above using a vector without PPAR ligand-binding domain (hereinafter abbreviated as a “Gal4-control vector”). On the third day, the cells in 3 wells of the 6-well plates were combined to adjust the concentration of cells to 3×10^5 cells/mL, and the obtained one was dispensed in 96-well plates at 100 μL/well to culture the cells. On the fourth day, the culture medium was replaced with 50 μL of the DMEM (+) containing the test compound at various concentrations (0.03 to 30 μM) (final DMSO concentration: 0.1%) to culture the cells. After the cells were exposed to the compound for 32 hours, 50 μL of Luc-Screen (Applied Biosystems) was added. 70 μL of the reaction solution in each well was moved to white plates to measure luminescence emitted due to the reaction of luciferase by the use of a Microplate Luminometer (EG & G berthold, LB96P).

human PPARδ = molecular target: T3, human PPARδ (Homo sapiens, UniProt Q03181); assay: PPARδ transcription activation, Gal4-hPPARδ (LBD)/Gal4-Luc reporter in 293 T cells; type: cell-based; details: Gal4-hPPARδ (LBD) luciferase reporter, 32 hours exposure, 0.03 to 30 μM, read-out: EC50 values of PPARs transcription activation effect, PPARδ
T3 construct: expressed in transfected cells; host or cells: 293 T cells
T3 sequence (Q03181 211-439 limits assumed): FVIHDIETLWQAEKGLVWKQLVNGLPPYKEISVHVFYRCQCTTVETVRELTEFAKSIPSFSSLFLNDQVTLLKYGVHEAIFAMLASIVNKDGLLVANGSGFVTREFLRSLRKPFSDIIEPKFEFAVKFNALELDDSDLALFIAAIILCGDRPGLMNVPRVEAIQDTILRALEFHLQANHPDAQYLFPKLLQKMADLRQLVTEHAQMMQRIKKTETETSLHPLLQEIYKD
Protocol: as §1

| SMILES | effect on the secretion of MCP-1 induced by stimulation with TNF-α [1] | effect on the expression of VCAM-1 induced by stimulation with TNF-α [2] | EC50 (human PPARγ) [nM] | EC50 (human PPARα) [nM] | EC50 (human PPARδ) [nM] |
| --- | --- | --- | --- | --- | --- |
| CC(C)OC(=O)C(C)(C)Oc1ccc(C(=O)c2ccc(Cl)cc2)cc1 [Fenofibrate] | no effect |  |  |  |  |
| Cc1cc(SCc2sc(-c3ccc(C(F)(F)F)cc3)nc2C)ccc1OCC(=O)O [GW501516] | suppressed | suppressed |  |  |  |
| O=C1NC(=O)C(Cc2ccc3cc(OCc4ccccc4F)ccc3c2)S1 (stereo not drawn) [MCC-555, 5-[6-(2-fluorobenzyloxy)-2-naphthyl]-methyl-thiazolidine-2,4-dione] |  |  | 6200 | 1000 | 1200 |
| CCc1ccc(CCOc2ccc(CC3SC(=O)NC3=O)cc2)nc1 (stereo not drawn) [Pioglitazone] | no effect | no effect |  |  |  |
| CN(CCOc1ccc(CC2SC(=O)NC2=O)cc1)c1ccccn1 (stereo not drawn) [Rosiglitazone] | no effect | no effect |  |  |  |
| Cc1cccc(Nc2cc(Cl)nc(SCC(=O)O)n2)c1C [Wy-14643] | no effect | suppressed |  |  |  |
